In brackets after ≈: the same amount, converted by molar mass. Read-outs that look alike come from different tables or passages of the source. Residues, ends and D or L forms follow the SMILES beside them. *: point of attachment. Palmitoyl = CCCCCCCCCCCCCCCC(=O)*; Myristoyl = CCCCCCCCCCCCCC(=O)*
Tests used:
S. epidermidis PCM521 = assay type: cell-based, Staphylococcus epidermidis
Protocol: (§1) The evaluation of the antimicrobial activity of the synthesized lipopeptides was performed against the following reference bacterial and fungal strains: Staphylococcus aureus PCM 1650, Staphylococcus aureus PCM 2054, Staphylococcus epidermidis PCM 521, Staphylococcus epidermidis PCM 2118, Escherichia coli PCM 2057, Candida albicans PCM 2566, Candida glabrata CCM 8270, Candida krusei CCM 8271, Candida parapsilosis CCM 8260.
(§2) For the initial cultivation of the bacteria and fungi, Luria-Bertani broth (LB, Biomaxima, Lublin, Poland) and Sabouraud Dextrose broth (SB, Biomaxima, Lublin, Poland) were used, respectively. Antimicrobial properties of the compounds were analyzed through the determination of MIC (minimal inhibitory concentrations) by my means of the serial micro-dilution technique according to the guidelines of Clinical & Laboratory Standard Institute (CLSI) established for aerobic bacteria and yeasts.
(§3) According to the procedures, Mueller–Hinton broth (MHB) was used as the working medium for the analysis of the bacterial susceptibility, while RPMI-1640 (with L-glutamine, without sodium bicarbonate) growth medium buffered with MOPS (morpholinepropanesulfonic acid) and supplemented with 2% glucose was used for the experiments with the fungi.
(§4) The experiments were carried out for 24 h at 37 and 35 °C for the bacteria and fungi, respectively. Then, the absorbance was measured at 600 nm for each well of the 96-well plate using a microplate reader (Sunrise TM, Tecan Trading AG, Männedorf, Switzerland). Based on the obtained results, the degree of inhibition of the growth of microorganisms (expressed in %) in the presence of the tested compounds range was determined with respect to the control probes. Inoculated wells without peptide were treated as a positive control (100% growth), and the wells containing working medium only were defined as a negative control (0% growth). All measurements were repeated in triplicate.

S. epidermidis PCM2118 = assay type: cell-based, Staphylococcus epidermidis
Protocol: as §1, §2, §3, §4

S. aureus PCM2054 = assay type: cell-based, Staphylococcus aureus
Protocol: as §1, §2, §3, §4

C. glabrata CCM8270 = assay type: cell-based, Candida glabrata
Protocol: as §1, §2, §3, §4

C. albicans PCM2566 = assay type: cell-based, Candida albicans
Protocol: as §1, §2, §3, §4

E. coli PCM2057 = assay type: cell-based, Escherichia coli
Protocol: as §1, §2, §3, §4

C. krusei CCM8271 = assay type: cell-based, Candida krusei
Protocol: as §1, §2, §3, §4

C. parapsilosis CCM 8260 = assay type: cell-based, Candida parapsilosis
Protocol: as §1, §2, §3, §4

[1] = Mueller–Hinton broth, inoculum 5 × 10^5 CFU/mL, 24 h, 37 °C, absorbance 600 nm, triplicate
[2] = RPMI-1640 with MOPS and 2% glucose, inoculum 5 × 10^3 CFU/mL, 24 h, 35 °C, absorbance 600 nm, triplicate

Row | SMILES | MIC, S. epidermidis PCM521 (S. epidermidis PCM521; PCM521, 24 h) | MIC, S. epidermidis PCM2118 (S. epidermidis PCM2118; PCM2118, 24 h) | MIC, S. aureus PCM2054 (S. aureus PCM2054; PCM2054, 24 h) | MIC, C. glabrata CCM8270 (C. glabrata CCM8270; CCM8270, 24 h) | MIC, C. albicans PCM2566 (C. albicans PCM2566; PCM2566, 24 h) | MIC, E. coli PCM2057 (E. coli PCM2057; PCM2057, 24 h) | MIC, C. krusei CCM8271 (C. krusei CCM8271; CCM8271, 24 h) | MIC, C. parapsilosis CCM 8260 (C. parapsilosis CCM 8260; CCM 8260, 24 h) | MIC, S. epidermidis PCM521 (S. epidermidis PCM521; [1]) | MIC, S. epidermidis PCM2118 (S. epidermidis PCM2118; [1]) | MIC, S. aureus PCM2054 (S. aureus PCM2054; [1]) | MIC, C. glabrata CCM8270 (C. glabrata CCM8270; [2]) | MIC, C. albicans PCM2566 (C. albicans PCM2566; [2]) | MIC, E. coli PCM2057 (E. coli PCM2057; [1]) | MIC, C. krusei CCM8271 (C. krusei CCM8271; [2]) | MIC, C. parapsilosis CCM 8260 (C. parapsilosis CCM 8260; [2])
1 | CCCCCCCCCCCCCC(=O)N[C@H](C(=O)N[C@@H](CCCCN)C(=O)N[C@@H](CCCCN)C(=O)N[C@H](C(=O)N[C@@H](CC(C)C)C(=O)N[C@@H](CO)C(=O)N[C@@H](CCCCN)C(=O)N[C@H](C(=O)N[C@@H](CCCCN)C(=O)N[C@@H](CCCCN)C(=O)N[C@@H](CC(C)C)C(=O)N[C@@H](CC(C)C)C(=O)N[C@@H](CCCCN)C(N)=O)[C@@H](C)CC)[C@@H](C)CC)[C@@H](C)CC [C14-LK6] (Myristoyl-IKKILSKIKKLLK-NH2) | 25 µg/mL (≈ 14.2 µM) | 25 µg/mL (≈ 14.2 µM) | 50 µg/mL (≈ 28.4 µM) | 12.5 µg/mL (≈ 7.09 µM) | 6.25 µg/mL (≈ 3.55 µM) | >50 µg/mL | 6.25 µg/mL (≈ 3.55 µM) | 6.25 µg/mL (≈ 3.55 µM) |  |  |  |  |  |  |  | 
2 | CCCCCCCCCCCCCC(=O)N[C@H](C(=O)N[C@@H](CC(N)=O)C(=O)N[C@@H](Cc1c[nH]c2ccccc12)C(=O)N[C@@H](CCCCN)C(=O)N[C@@H](CCCCN)C(=O)N[C@H](C(=O)N[C@@H](CC(C)C)C(=O)NCC(=O)N[C@@H](CCCCN)C(=O)N[C@H](C(=O)N[C@H](C(=O)N[C@@H](CCCCN)C(=O)N[C@H](C(=O)N[C@@H](C)C(=O)N[C@@H](CCCCN)C(N)=O)C(C)C)[C@@H](C)CC)[C@@H](C)CC)C(C)C)C(C)C [C14-LL-I] (Myristoyl-VNWKKVLGKIIKVAK-NH2) |  |  |  |  |  |  |  |  | 12.5 µg/mL (≈ 6.46 µM) | 12.5 µg/mL (≈ 6.46 µM) | >50 µg/mL | 12.5 µg/mL (≈ 6.46 µM) | >50 µg/mL | >50 µg/mL | 12.5 µg/mL (≈ 6.46 µM) | 3.13 µg/mL (≈ 1.62 µM)
3 | CCCCCCCCCCCCCCCC(=O)N[C@H](C(=O)N[C@@H](CCCCN)C(=O)N[C@@H](CCCCN)C(=O)N[C@H](C(=O)N[C@@H](CC(C)C)C(=O)N[C@@H](CO)C(=O)N[C@@H](CCCCN)C(=O)N[C@H](C(=O)N[C@@H](CCCCN)C(=O)N[C@@H](CCCCN)C(=O)N[C@@H](CC(C)C)C(=O)N[C@@H](CC(C)C)C(=O)N[C@@H](CCCCN)C(N)=O)[C@@H](C)CC)[C@@H](C)CC)[C@@H](C)CC [C16-LK6] (Palmitoyl-IKKILSKIKKLLK-NH2) | 50 µg/mL (≈ 27.9 µM) | 50 µg/mL (≈ 27.9 µM) | >50 µg/mL | >50 µg/mL | 6.25 µg/mL (≈ 3.49 µM) | >50 µg/mL | 25 µg/mL (≈ 14 µM) | 50 µg/mL (≈ 27.9 µM) |  |  |  |  |  |  |  | 
4 | CCCCCCCCCCCCCCCC(=O)N[C@H](C(=O)N[C@@H](CC(N)=O)C(=O)N[C@@H](Cc1c[nH]c2ccccc12)C(=O)N[C@@H](CCCCN)C(=O)N[C@@H](CCCCN)C(=O)N[C@H](C(=O)N[C@@H](CC(C)C)C(=O)NCC(=O)N[C@@H](CCCCN)C(=O)N[C@H](C(=O)N[C@H](C(=O)N[C@@H](CCCCN)C(=O)N[C@H](C(=O)N[C@@H](C)C(=O)N[C@@H](CCCCN)C(N)=O)C(C)C)[C@@H](C)CC)[C@@H](C)CC)C(C)C)C(C)C [C16-LL-I] (Palmitoyl-VNWKKVLGKIIKVAK-NH2) |  |  |  |  |  |  |  |  | 25 µg/mL (≈ 12.7 µM) | 25 µg/mL (≈ 12.7 µM) | >50 µg/mL | >50 µg/mL | >50 µg/mL | >50 µg/mL | >50 µg/mL | 12.5 µg/mL (≈ 6.37 µM)
5 | CC[C@H](C)[C@H](N)C(=O)N[C@@H](CCCCN)C(=O)N[C@@H](CCCCN)C(=O)N[C@H](C(=O)N[C@@H](CC(C)C)C(=O)N[C@@H](CO)C(=O)N[C@@H](CCCCN)C(=O)N[C@H](C(=O)N[C@@H](CCCCN)C(=O)N[C@@H](CCCCN)C(=O)N[C@@H](CC(C)C)C(=O)N[C@@H](CC(C)C)C(=O)N[C@@H](CCCCN)C(N)=O)[C@@H](C)CC)[C@@H](C)CC [LK6, reference compound] (H-IKKILSKIKKLLK-NH2) | 6.25 µg/mL (≈ 4.03 µM) | 6.25 µg/mL (≈ 4.03 µM) | >50 µg/mL | 31.25 µg/mL (≈ 20.1 µM) | 50 µg/mL (≈ 32.2 µM) | >50 µg/mL | 12.5 µg/mL (≈ 8.05 µM) | 12.5 µg/mL (≈ 8.05 µM) |  |  |  |  |  |  |  | 
